Reference: ChEMBL document CHEMBL1201862, “PubChem BioAssay data set” (2004)
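Briefly, cells in 96-well plates were exposed to five compound concentrations for 48 h, and endpoints were estimated by linear interpolation. GI50 is the concentration that inhibits growth by half.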 Activity calls are given as the source filed them. Cut-off read from the data, not from the text of the source: active = GI50 up to about 1.1 µM and inactive = higher.

What was measured:
Test in all cases: NCI tumour cell line growth inhibition, 48 h
SK-OV-3 = test system: SK-OV-3
SW-620 = test system: SW-620
HOP-92 = test system: HOP-92
HT-29 = test system: HT-29
UACC-257 = test system: UACC-257
MDA-MB-231 = test system: MDA-MB-231
OVCAR-3 = test system: OVCAR-3
A498 = test system: A498
COLO 205 = test system: COLO 205
SF-268 = test system: SF-268
KM12 = test system: KM12
T47D = test system: T47D
OVCAR-4 = test system: OVCAR-4
MCF7 = test system: MCF7
M14 = test system: M14
SNB-78 = test system: SNB-78
RXF 393 = test system: RXF 393
BT-549 = test system: BT-549
MOLT-4 = test system: MOLT-4
Hs-578T = test system: Hs-578T

Measured: GI50

O=[N+]([O-])c1ccc(C2=Nn3c(nnc3-c3ccc(Cl)cc3)SC2)o1
inactive: SK-OV-3 19.3 µM | SW-620 2.37 µM | HOP-92 3.29 µM | HT-29 3.22 µM | UACC-257 7.38 µM | MDA-MB-231 3.24 µM | OVCAR-3 3.98 µM | A498 16.9 µM | COLO 205 2.05 µM | SF-268 10.8 µM | KM12 7.93 µM | T47D 5.45 µM | OVCAR-4 3.11 µM | MCF7 1.88 µM | M14 5.46 µM | SNB-78 15.8 µM | RXF 393 11.5 µM | BT-549 11.4 µM | MOLT-4 3.28 µM | Hs-578T 5.83 µM
